Source: patent US20070298105A1, “METHODS OF TREATING CONDITIONS BY SUSTAINED RELEASE ADMINISTRATION OF BENZIMIDAZOLE DERIVATIVES” (priority 2006, published 2007)
Where two headings read alike, the source gives them in different places.

Assays:
[1] = Colonic intubation study: plasma pharmacokinetics of rabeprazole and esomeprazole; assay type: in vivo, human; details: for AUC(0-inf): read-out: AUCinf (mean)
Description: A single-dose, open-label, partially randomized, five-treatment, five-period, crossover pilot study was performed in healthy males to determine relative pharmacokinetics of rabeprazole, and comparators when dosed either orally or colonically. The study was a single dose study with blood sampling up to 24 hours following initiation. […] Colonic dosing occurred using a nasoenteral tube. Treatment C was a single 20 mg dose of rabeprazole sodium oral enteric coated tablets dosed orally. Treatment D was placebo (200 mL of water) dosed orally. […] For subjects whose apparent elimination rate constant [k] could not be properly determined, the AUC to infinity [AUCinf]) was calculated based on the median apparent elimination constant [k] of the subjects with available t1/2 values in the same treatment period. […] The intragastric pH profile were determined.

intragastric pH = experiment: Colonic intubation study: intragastric pH profile (percent of time with pH >4); assay type: in vivo, human
Description: A single-dose, open-label, partially randomized, five-treatment, five-period, crossover pilot study was performed in healthy males to determine relative pharmacokinetics of rabeprazole, and comparators when dosed either orally or colonically. The study was a single dose study with blood sampling up to 24 hours following initiation.
Treatments A and B were rabeprazole sodium solution dosed to provide 30 and 60 mg, respectively, over 20 hours in the transverse colon of the subjects. Colonic dosing occurred using a nasoenteral tube. Treatment C was a single 20 mg dose of rabeprazole sodium oral enteric coated tablets dosed orally. Treatment D was placebo (200 mL of water) dosed orally.
The intragastric pH profile was analyzed based on the percentage of time that the intragastric pH was above 4, which was calculated for the full 24 hours. In addition, the mean pH value over 5 time intervals of 6 hours each during the 30-hr sampling time was also estimated.

[2] = male, human, plasma, other: colonic (nasoenteral tube into the transverse colon), 30 mg, TRT A: rabeprazole 30 mg solution in the colon over 20 hours, N = 19
[3] = male, human, plasma, other: colonic (nasoenteral tube into the transverse colon), 30 mg, TRT A: rabeprazole 30 mg solution in the colon over 20 hours, subset N = 14
[4] = male, human, plasma, other: colonic (nasoenteral tube into the transverse colon), 60 mg, TRT B: rabeprazole 60 mg solution in the colon over 20 hours, N = 19
[5] = male, human, plasma, other: colonic (nasoenteral tube into the transverse colon), 60 mg, TRT B: rabeprazole 60 mg solution in the colon over 20 hours, subset N = 14
[6] = male, human, plasma, po, 20 mg, TRT C: rabeprazole 20 mg oral tablet, N = 19
[7] = male, human, plasma, po, 20 mg, TRT C: rabeprazole 20 mg oral tablet, subset N = 14

Tmax ([1]; male, human, plasma, other: colonic (nasoenteral tube into the transverse colon), 30 mg, 30 mg rabeprazole colonic solution treatment, after start of treatment (colon infusion ended at 20 hr), read-out: median Tmax): ~18 h
AUC(0-t) [1, 2]: 287 ng·h/mL
AUC(0-inf) [1, 2]: 332 ng·h/mL
Tmax ([1]; male, human, plasma, other: colonic (nasoenteral tube into the transverse colon), 30 mg, TRT A: rabeprazole 30 mg solution in the colon over 20 hours, N = 19, read-out: Tmax (median)): 18 h
half-life ([1]; male, human, plasma, other: colonic (nasoenteral tube into the transverse colon), 30 mg, TRT A: rabeprazole 30 mg solution in the colon over 20 hours, N = 19, read-out: t1/2 (median) (converted)): 2 h
Cmax ([1]; male, human, plasma, other: colonic (nasoenteral tube into the transverse colon), 30 mg, TRT A: rabeprazole 30 mg solution in the colon over 20 hours, single dose, healthy males, N = 19): 18 ng/mL
AUC(0-t) [1, 3]: 290 ng·h/mL
AUC(0-inf) [1, 3]: 343 ng·h/mL
half-life ([1]; male, human, plasma, other: colonic (nasoenteral tube into the transverse colon), 30 mg, TRT A: rabeprazole 30 mg solution in the colon over 20 hours, subset N = 14, read-out: t1/2 (median) (converted)): 2 h
Tmax ([1]; male, human, plasma, other: colonic (nasoenteral tube into the transverse colon), 60 mg, 60 mg rabeprazole colonic solution treatment, after start of treatment (colon infusion ended at 20 hr), read-out: median Tmax): ~18 h
AUC(0-t) [1, 4]: 549 ng·h/mL
AUC(0-inf) [1, 4]: 599 ng·h/mL
Tmax ([1]; male, human, plasma, other: colonic (nasoenteral tube into the transverse colon), 60 mg, TRT B: rabeprazole 60 mg solution in the colon over 20 hours, N = 19, read-out: Tmax (median)): 18 h
half-life ([1]; male, human, plasma, other: colonic (nasoenteral tube into the transverse colon), 60 mg, TRT B: rabeprazole 60 mg solution in the colon over 20 hours, N = 19, read-out: t1/2 (median) (converted)): 1.9 h
Cmax ([1]; male, human, plasma, other: colonic (nasoenteral tube into the transverse colon), 60 mg, TRT B: rabeprazole 60 mg solution in the colon over 20 hours, single dose, healthy males, N = 19): 38.4 ng/mL
AUC(0-t) [1, 5]: 586 ng·h/mL
AUC(0-inf) [1, 5]: 646 ng·h/mL
half-life ([1]; male, human, plasma, other: colonic (nasoenteral tube into the transverse colon), 60 mg, TRT B: rabeprazole 60 mg solution in the colon over 20 hours, subset N = 14, read-out: t1/2 (median) (converted)): 2.1 h
half-life ([1]; male, human, plasma, other: colonic (nasoenteral tube into the transverse colon), rabeprazole following colonic treatment, read-out: median plasma half-life (converted)): ~2 h
bioavailability ([1]; male, human, plasma, other: colonic (nasoenteral tube into the transverse colon), colonic treatment compared to oral tablets, dose-normalized basis, read-out: percent relative bioavailability (colonic bioavailability)): ~40%
Cmax ([1]; male, human, plasma, other: colonic (transverse colon, via nasoenteral tube), 30 mg, TRT A: rabeprazole 30 mg solution in the colon over 20 hours, subset N = 14): 18.7 ng/mL
Tmax ([1]; male, human, plasma, other: colonic (transverse colon, via nasoenteral tube), 30 mg, TRT A: rabeprazole 30 mg solution in the colon over 20 hours, subset N = 14, read-out: Tmax (median)): 18 h
Cmax ([1]; male, human, plasma, other: colonic (transverse colon, via nasoenteral tube), 60 mg, TRT B: rabeprazole 60 mg solution in the colon over 20 hours, subset N = 14): 43.7 ng/mL
Tmax ([1]; male, human, plasma, other: colonic (transverse colon, via nasoenteral tube), 60 mg, TRT B: rabeprazole 60 mg solution in the colon over 20 hours, subset N = 14, read-out: Tmax (median)): 18 h
Tmax ([1]; male, human, plasma, po, 20 mg, 20 mg rabeprazole oral tablet treatment, read-out: median Tmax): 4.5 to 6 h
AUC(0-t) [1, 6]: 534 ng·h/mL
AUC(0-inf) [1, 6]: 603 ng·h/mL
Tmax ([1]; male, human, plasma, po, 20 mg, TRT C: rabeprazole 20 mg oral tablet, N = 19, read-out: Tmax (median)): 4.5 h
half-life ([1]; male, human, plasma, po, 20 mg, TRT C: rabeprazole 20 mg oral tablet, N = 19, read-out: t1/2 (median) (converted)): 0.96 h
Cmax ([1]; male, human, plasma, po, 20 mg, TRT C: rabeprazole 20 mg oral tablet, single dose, healthy males, N = 19): 239 ng/mL
AUC(0-t) [1, 7]: 619 ng·h/mL
Cmax [1, 7]: 267 ng/mL
AUC(0-inf) [1, 7]: 697 ng·h/mL
Tmax ([1]; male, human, plasma, po, 20 mg, TRT C: rabeprazole 20 mg oral tablet, subset N = 14, read-out: Tmax (median)): 6 h
half-life ([1]; male, human, plasma, po, 20 mg, TRT C: rabeprazole 20 mg oral tablet, subset N = 14, read-out: t1/2 (median) (converted)): 1 h
half-life ([1]; male, human, plasma, po, 20 mg, rabeprazole following oral administration, read-out: median plasma half-life (converted)): ~1 h
AUC compared with 20 mg oral tablet ([1]; rabeprazole 60 mg colonic treatment): comparable AUC
SMILES: COCCCOc1ccnc(C[S+]([O-])c2nc3ccccc3[nH]2)c1C (centres unmarked) [Rabeprazole, 2-[[[4-(3-methoxypropoxy)-3-methyl-2-pyridinyl]-methyl]sulfinyl]-1H-benzimidazole]
dose proportionality of mean Cmax and AUC ([1]; 30 mg and 60 mg colonic treatments): increased approximately dose proportionally
Mean percent of time with pH >4 (intragastric pH; 0-6 hr (10 am-4 pm), TRT A: rabeprazole 30 mg solution in the colon, N = 19): 30.6%
Mean percent of time with pH >4 (intragastric pH; 0-6 hr (10 am-4 pm), TRT B: rabeprazole 60 mg solution in the colon, N = 19): 32.6%
Mean percent of time with pH >4 (intragastric pH; 0-6 hr (10 am-4 pm), TRT B: rabeprazole 60 mg solution in the colon, subset N = 14): 34.6%
Mean percent of time with pH >4 (intragastric pH; 0-6 hr (10 am-4 pm), TRT C: rabeprazole 20 mg oral tablet, N = 19): 31.1%
Mean percent of time with pH >4 (intragastric pH; 0-6 hr (10 am-4 pm), TRT C: rabeprazole 20 mg oral tablet, subset N = 14): 29.1%
Mean percent of time with pH >4 (intragastric pH; 6-12 hr (4 pm-10 pm), TRT A: rabeprazole 30 mg solution in the colon, N = 19): 37.9%
Mean percent of time with pH >4 (intragastric pH; 6-12 hr (4 pm-10 pm), TRT B: rabeprazole 60 mg solution in the colon, N = 19): 50.5%
Mean percent of time with pH >4 (intragastric pH; 6-12 hr (4 pm-10 pm), TRT B: rabeprazole 60 mg solution in the colon, subset N = 14): 55.8%
Mean percent of time with pH >4 (intragastric pH; 6-12 hr (4 pm-10 pm), TRT C: rabeprazole 20 mg oral tablet, N = 19): 60.9%
Mean percent of time with pH >4 (intragastric pH; 6-12 hr (4 pm-10 pm), TRT C: rabeprazole 20 mg oral tablet, subset N = 14): 63.6%
Mean percent of time with pH >4 (intragastric pH; 12-18 hr (10 pm-4 am), TRT A: rabeprazole 30 mg solution in the colon, N = 19): 23.2%
Mean percent of time with pH >4 (intragastric pH; 12-18 hr (10 pm-4 am), TRT B: rabeprazole 60 mg solution in the colon, N = 19): 34.3%
Mean percent of time with pH >4 (intragastric pH; 12-18 hr (10 pm-4 am), TRT B: rabeprazole 60 mg solution in the colon, subset N = 14): 39.9%
Mean percent of time with pH >4 (intragastric pH; 12-18 hr (10 pm-4 am), TRT C: rabeprazole 20 mg oral tablet, N = 19): 25.9%
Mean percent of time with pH >4 (intragastric pH; 12-18 hr (10 pm-4 am), TRT C: rabeprazole 20 mg oral tablet, subset N = 14): 26.7%
Mean percent of time with pH >4 (intragastric pH; 18-24 hr (4 am-10 am), TRT A: rabeprazole 30 mg solution in the colon, N = 19): 47.2%
Mean percent of time with pH >4 (intragastric pH; 18-24 hr (4 am-10 am), TRT B: rabeprazole 60 mg solution in the colon, N = 19): 64.0%
Mean percent of time with pH >4 (intragastric pH; 18-24 hr (4 am-10 am), TRT B: rabeprazole 60 mg solution in the colon, subset N = 14): 68.9%
Mean percent of time with pH >4 (intragastric pH; 18-24 hr (4 am-10 am), TRT C: rabeprazole 20 mg oral tablet, N = 19): 37.8%
Mean percent of time with pH >4 (intragastric pH; 18-24 hr (4 am-10 am), TRT C: rabeprazole 20 mg oral tablet, subset N = 14): 35.4%
Mean percent of time with pH >4 (intragastric pH; 24-30 hr (10 am-4 pm), TRT A: rabeprazole 30 mg solution in the colon, N = 19): 45.4%
Mean percent of time with pH >4 (intragastric pH; 24-30 hr (10 am-4 pm), TRT B: rabeprazole 60 mg solution in the colon, N = 19): 64.4%
Mean percent of time with pH >4 (intragastric pH; 24-30 hr (10 am-4 pm), TRT B: rabeprazole 60 mg solution in the colon, subset N = 14): 72.0%
Mean percent of time with pH >4 (intragastric pH; 24-30 hr (10 am-4 pm), TRT C: rabeprazole 20 mg oral tablet, N = 19): 43.6%
Mean percent of time with pH >4 (intragastric pH; 24-30 hr (10 am-4 pm), TRT C: rabeprazole 20 mg oral tablet, subset N = 14): 45.4%
Mean percent of time with pH >4 (intragastric pH; 24-hr average, TRT A: rabeprazole 30 mg solution in the colon, N = 19): 34.7%
Mean percent of time with pH >4 (intragastric pH; 24-hr average, TRT A: rabeprazole 30 mg solution in the colon, N = 19, listed as rabeprazole): 35%
Mean percent of time with pH >4 (intragastric pH; 24-hr average, TRT B: rabeprazole 60 mg solution in the colon, N = 19): 44.9%
Mean percent of time with pH >4 (intragastric pH; 24-hr average, TRT B: rabeprazole 60 mg solution in the colon, N = 19, listed as rabeprazole): 45%
Mean percent of time with pH >4 (intragastric pH; 24-hr average, TRT B: rabeprazole 60 mg solution in the colon, subset N = 14): 49.2%
Mean percent of time with pH >4 (intragastric pH; 24-hr average, TRT C: rabeprazole 20 mg oral tablet, N = 19): 38.9%
Mean percent of time with pH >4 (intragastric pH; 24-hr average, TRT C: rabeprazole 20 mg oral tablet, N = 19, listed as rabeprazole): 39%
Mean percent of time with pH >4 (intragastric pH; 24-hr average, TRT C: rabeprazole 20 mg oral tablet, subset N = 14): 38.7%
dose dependence of percentage of time with pH >4 (intragastric pH; 30 and 60 mg colonic rabeprazole treatments, 6-12 h period and beyond): dose-dependent increase
effect on percentage of time with pH >4 compared to placebo (intragastric pH; first 6 hours of treatment, rabeprazole Treatments A, B and C): not significantly different from placebo
gastric pH control compared with rabeprazole 20 mg tablet (intragastric pH; rabeprazole 60 mg colonic treatment, especially during the night-time period (12-30 hr)): better gastric pH control
